Test results: patent US20250326738A1, “MALT1 Modulators and Uses Thereof” (Rarefied Biosciences, Inc., priority 2022, published 2025)

Experiments:
full length MALT1 = molecular target: T1, full length MALT1 (Homo sapiens, UniProt Q9UDY8); assay: MALT1 biochemical assay (fluorogenic peptide substrate cleavage); details: full length MALT1, 15 nM enzyme, 30 μM peptide substrate, 30 min pre-incubation, 60 min reaction; mean if tested more than once
T1 construct: measuring enzymatic activity of full length MALT1 at varying concentrations of compound
T1 sequence (Q9UDY8 1-824): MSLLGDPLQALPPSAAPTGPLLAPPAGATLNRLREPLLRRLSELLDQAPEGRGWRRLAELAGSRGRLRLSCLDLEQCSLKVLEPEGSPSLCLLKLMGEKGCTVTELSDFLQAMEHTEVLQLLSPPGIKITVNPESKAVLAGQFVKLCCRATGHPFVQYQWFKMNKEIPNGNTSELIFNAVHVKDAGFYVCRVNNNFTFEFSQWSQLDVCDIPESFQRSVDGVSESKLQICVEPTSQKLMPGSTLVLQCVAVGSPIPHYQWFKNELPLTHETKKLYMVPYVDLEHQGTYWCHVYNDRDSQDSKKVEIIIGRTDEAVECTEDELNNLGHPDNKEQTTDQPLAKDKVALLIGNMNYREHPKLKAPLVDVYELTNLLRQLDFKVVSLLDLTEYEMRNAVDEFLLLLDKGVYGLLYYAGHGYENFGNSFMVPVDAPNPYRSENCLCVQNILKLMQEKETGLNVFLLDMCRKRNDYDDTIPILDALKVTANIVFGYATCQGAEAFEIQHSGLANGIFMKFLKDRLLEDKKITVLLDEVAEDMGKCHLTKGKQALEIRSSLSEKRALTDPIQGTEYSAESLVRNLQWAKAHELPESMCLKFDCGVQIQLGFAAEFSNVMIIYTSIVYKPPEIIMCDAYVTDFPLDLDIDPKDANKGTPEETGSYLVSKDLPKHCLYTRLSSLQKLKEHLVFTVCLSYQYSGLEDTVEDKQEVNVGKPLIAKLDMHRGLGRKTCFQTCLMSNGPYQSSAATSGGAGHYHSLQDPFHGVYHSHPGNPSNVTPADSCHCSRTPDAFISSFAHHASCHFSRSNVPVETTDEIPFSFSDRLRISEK
Protocol: Inhibitor potency was evaluated by measuring enzymatic activity of full length MALT1 at varying concentrations of compound. The enzymatic assay consists of a single substrate reaction that monitors the release of a fluorescent dye upon cleavage of the peptide substrate. […] The assay buffer consists of 50 mM Hepes, pH 7.5, 0.8 M sodium citrate, 1 mM DTT, 0.004% tween-20, and 0.005% bovine serum albumin (BSA). […] The reaction was quenched after 60 minutes with the addition of iodoacetate at a final concentration of 10 mM. Total fluorescence was measured using an Envision (PerkinElmer) with fluorescence excitation at 485 nm and emission at 520 nm.
The reaction was initiated with the addition of 10 μL of peptide substrate. […] IC50 values were calculated by fitting the concentration-response curves to a four-parameter logistic equation in GraphPad Prism.
“N/A” indicates not tested.

Jurkat IL-2 = Jurkat IL-2 assay (IL-2 inhibition by ELISA after anti-CD3/28/2 stimulation); assay type: cell-based; details: Jurkat clone E6.1, IL-2 in supernatant, 30 min pre-incubation, anti-CD3/28/2 stimulation 24 hours, mean if tested more than once
Protocol: Inhibition was determined in a cell-based assay using Jurkat (ATCC, clone E6.1), an immortalized T-cell line, exposed to a dose response of compound and assessed for viability, and IL-2 inhibition by ELISA. Cells were cultured in RPMI/10% FBS (Invitrogen 11875093, Atlanta Biologicals S12450H), maintained below 3E6/mL and only used in assays while below passage 25. Compounds were stamped by ECHO onto 384w plates (PerkinElmer Culturplate, 6007680). The cells were plated in fresh media on top of compound and incubated for 30 minutes before stimulation with soluble anti-CD3/28/2 (Stemcell, 10970) for 24 hours. Supernatant was collected and assessed for IL-2 (MSD, 384w, L21SA-1). To assess viability of cells treated with compound, cells were lysed with CTG reagent (Promega, G7570), and measured by luminometer. […] IC50s calculated using 4-parameter fit in GraphPad Prism.
“N/A” indicates not tested. For a compound that was tested in more than one experiment, the result shown represents the mean value.

| IC50 (full length MALT1) [nM] | IC50 (Jurkat IL-2; Homo sapiens) [nM] | IC50 (Jurkat IL-2) [nM] | Compound |
| --- | --- | --- | --- |
| 100 to 1000 | 100 to 1000 |  | CC(=O)N1CC(C(=O)N(C)[C@@H](c2ccc(Nc3cnn(-c4cccc(C#N)c4)c3C3CC3)cc2)C(F)(F)F)C1 [Compound 1.39] |
| < 100 | < 100 |  | CN(C(=O)[C@H]1CC[C@H](C(=O)O)CC1)[C@@H](c1ccc(Nc2cnn(-c3ccccc3)c2C(F)(F)F)cc1)C(F)(F)F [Compound 2.1, (1S,4r)-4-(methyl((S)-2,2,2-trifluoro-1-(4-((1-phenyl-5-(trifluoromethyl)-1H-pyrazol-4-yl)amino)phenyl)ethyl)carbamoyl)cyclohexane-1-carboxylic acid] |
| < 100 | 100 to 1000 |  | CO[C@@H](C)c1c(Nc2ccc([C@H](N(C)C(=O)[C@H]3CC[C@H](C(=O)O)CC3)C(F)(F)F)cc2)cnn1-c1ccccn1 [Compound 2.5] |
| 100 to 1000 | > 1000 |  | CO[C@@H](C)c1c(Nc2ccc([C@H](N(C)C(=O)[C@H]3CC[C@H](C(=O)O)CC3)C(F)(F)F)cc2)cnn1-c1ccncc1 [Compound 2.7] |
| < 100 | < 100 |  | CN(C(=O)[C@H]1C[C@H](C(=O)O)C1)[C@@H](c1ccc(Nc2cnn(-c3ccccn3)c2C(F)(F)F)cc1)C(F)(F)F [Compound 2.11, (1r,3r)-3-{methyl[(1S)-2,2,2-trifluoro-1-(4-{[1-(pyridin-2-yl)-5-(trifluoromethyl)-1H-pyrazol-4-yl]amino}phenyl)ethyl]carbamoyl}cyclobutane-1-carboxylic Acid Amine] |
| < 100 | 100 to 1000 |  | CN(C(=O)[C@H]1C[C@@H](C(=O)O)C1)[C@@H](c1ccc(Nc2cnn(-c3ccccn3)c2C(F)(F)F)cc1)C(F)(F)F [Compound 2.12, (1s,3s)-3-{methyl[(1S)-2,2,2-trifluoro-1-(4-{[1-(pyridin-2-yl)-5-(trifluoromethyl)-1H-pyrazol-4-yl]amino}phenyl)ethyl]carbamoyl}cyclobutane-1-carboxylic Acid Amine] |
| < 100 | 100 to 1000 |  | CN(C(=O)[C@H]1C[C@@H](C(=O)O)C1)[C@@H](c1ccc(Nc2cnn(-c3ccccc3)c2C(F)(F)F)cc1)C(F)(F)F [Compound 2.14] |
| > 1000 |  | 100 to 1000 | (1r,4S)—N—((S)-1-(4-((4-cyclopropyl-1,5-naphthyridin-3-yl)amino)phenyl)-2,2,2-trifluoroethyl)-N-methyl-4-(1H-tetrazol-5-yl)cyclohexane-1-carboxamide [Compound 3.1] |

Second part, the compound before the results:

| Compound | IC50 (full length MALT1) [nM] | IC50 (Jurkat IL-2; Homo sapiens) [nM] | IC50 (Jurkat IL-2) [nM] |
| --- | --- | --- | --- |
| CC(=O)N1CC(C(=O)N(C)[C@@H](c2ccc(Nc3cnn(-c4ccccn4)c3C3CC3)cc2)C(F)(F)F)C1 [Compound 1.40] | < 100 | 100 to 1000 |  |
| CN(C(=O)[C@H]1CC[C@H](C(=O)O)CC1)[C@@H](c1ccc(Nc2cnn(-c3ccncc3)c2C(F)(F)F)cc1)C(F)(F)F [Compound 2.2] | 100 to 1000 | 100 to 1000 |  |
| CN(C(=O)[C@H]1CC[C@H](C(=O)O)CC1)[C@@H](c1ccc(Nc2cnn(-c3cccnc3)c2C(F)(F)F)cc1)C(F)(F)F [Compound 2.3] | 100 to 1000 | < 100 |  |
| CN(C(=O)[C@H]1CC[C@H](C(=O)O)CC1)[C@@H](c1ccc(Nc2cnn(-c3ccccn3)c2C(F)(F)F)cc1)C(F)(F)F [Compound 2.4] | < 100 | < 100 |  |
| CO[C@@H](C)c1c(Nc2ccc([C@H](N(C)C(=O)[C@H]3CC[C@H](C(=O)O)CC3)C(F)(F)F)cc2)cnn1-c1ccccc1 [Compound 2.6] | 100 to 1000 | 100 to 1000 |  |
| CO[C@@H](C)c1c(Nc2ccc([C@H](N(C)C(=O)[C@H]3CC[C@H](C(=O)O)CC3)C(F)(F)F)cc2)cnn1-c1cccnc1 [Compound 2.8] | 100 to 1000 | 100 to 1000 |  |
| CN(C(=O)[C@H]1CC[C@H](C(=O)O)CC1)[C@@H](c1ccc(Nc2cnn(-c3cccnn3)c2C(F)(F)F)cc1)C(F)(F)F [Compound 2.9] | < 100 | < 100 |  |
| CO[C@@H](C)c1c(Nc2ccc([C@H](N(C)C(=O)[C@H]3CC[C@H](C(=O)O)CC3)C(F)(F)F)cc2)cnn1-c1cccc(C#N)c1 [Compound 2.10] | < 100 | 100 to 1000 |  |
| CN(C(=O)[C@H]1C[C@H](C(=O)O)C1)[C@@H](c1ccc(Nc2cnn(-c3ccccc3)c2C(F)(F)F)cc1)C(F)(F)F [Compound 2.13] | < 100 | < 100 |  |
